Test [1] can be described thus: Hydroxyl radicals scavenging activity (Fe3+/ascorbic acid system, competition with DMSO). Conditions: 0.1 mM; no = no action under the used experimental conditions. As for the experimental part: Thus we evaluated our acids for their competition with DMSO for ˙OH radicals was measured, hydroxyl radicals were produced by the Fe^3+/ascorbic acid system and expressed as percent inhibition of formaldehyde formation at 0.1 mM concentration (Table 3).
The hydroxyl radicals were produced by the Fe ^3+/ascorbic acid system. EDTA (0.1 mM), Fe ^3+ (167 μM), DMSO (33 mM) in phosphate buffer (50 mM, pH 7.4), the tested compounds (0.1 mM) and ascorbic acid (10 mM) were mixed in test tubes. The solutions were incubated at 37 °C for 30 min. The reaction was stopped by CCl3COOH (17% w/v) (Table 4) and the % scavenging activity of the tested compounds for hydroxyl radicals was given.

In test [2] the test system is HT-29 (colon). Briefly: SRB cytotoxicity assay, HT-29. It counts as cell-based. Conditions: Homo sapiens, 50% growth inhibition, 48 h exposure. As for the experimental part:
(§1) Human cancer cell lines used as targets were HT-29 (colon), A-549 (lung), OAW-42 (ovarian), MDA-MB-231 (breast), HeLa (immortal cells from cervical cancer). All cells were obtained from the American Type Culture Collection (ATCC). Cells were routinely grown as monolayer cell cultures in T-75 flasks (Costar) in an atmosphere containing 5% CO2 in air and 100% relative humidity at 37 °C and subcultured twice a week, restricting the total number of cell passages below 20. The culture medium used was Dulbecco’s modified Eagle’s medium (DMEM, Gibco, Grand Island, NY, USA) supplemented with 10% fetal bovine serum (Gibco), 2 mM glutamine (Sigma), 100 μg/mL streptomycin and 100 IU/mL penicillin.
(§2) Cell passages were carried out by detaching adherent, logarithmically growing cells after addition of 2–3 mL of a mixture of 0.05% solution of trypsin (Gibco, 1:250) in phosphate-buffered saline (PBS) with 0.02% EDTA and incubation for 3–5 min at 37 °C. For the experiments, cells were plated (100 μL containing 10,000 cells/well) in 96-well flat-bottom microplates microplates (Costar-Corning, Acton, MA 01720, USA) so that untreated cells were in exponential growth phase at the time of cytotoxicity evaluation. Cells were left for 24 h at 37 °C to resume exponential growth and stabilization and afterwards exposed to tested agents for 48 h by the addition of an equal volume (100 μL) of either complete culture medium (control wells), or twice the final drug concentrations diluted in complete culture medium (test wells). Drug cytotoxicity was measured by means of the SRB colorimetric assay estimating the survival fractions (SF) as the percent of control (untreated cells) absorbance. The SRB assay was carried out as previously described and modified by our group. In brief, culture medium was aspirated prior to fixation using a microplate-multiwash device (Tri-Continent Scientific, Inc., Grass Valley, CA, USA) and 50 μL of 10% cold (4 °C) trichloroacetic acid (TCA) were gently added to the wells. Microplates were left for 30 min at 4 °C, washed five times with deionized water and left to dry at room temperature for at least 24 h. Subsequently, 70 μL of 0.4% (w/v) sulforhodamine B (Sigma) in 1% acetic acid solution were added to each well and left at room temperature for 20 min. SRB was removed and the plates were washed five times with 1% acetic acid before air drying. Bound SRB was solubilized with 200 μL of 10 mM unbuffered Tris-base solution and plates were left on a plate shaker for at least 10 min. Absorbance was read in a 96-well plate reader at 492 nm subtracting the background measurement at 620 nm. The test optical density (OD) value was defined as the absorbance of each individual well, minus the blank value (“blank” is the mean optical density of the background control wells, n = 8). Mean values and the coefficient of variation (CV) from six replicate wells were calculated automatically. Results were expressed as the “survival fraction” (SF), as shown below.
(§3) For each tested compound a dose-effect curve was produced. Sextuplicate determinations gave a CV (Standard Deviation/mean %) of much less than 10%, resulting in standard error (SE) which was very low in all cases. The data showing inhibition of cellular growth are expressed as the fraction of cells that remains unaffected (fu) (survival fraction, SF), which is derived from the following equation: fu = ODx/ODc where ODx and ODc represent the test and the control optical density, respectively.

Test [3] has as its target T1, soybean lipoxygenase (Glycine max, UniProt P08170).
T1 construct: purchased Sigma Chemical, Co. (St. Louis, MO, USA)
T1 sequence (P08170 1-839): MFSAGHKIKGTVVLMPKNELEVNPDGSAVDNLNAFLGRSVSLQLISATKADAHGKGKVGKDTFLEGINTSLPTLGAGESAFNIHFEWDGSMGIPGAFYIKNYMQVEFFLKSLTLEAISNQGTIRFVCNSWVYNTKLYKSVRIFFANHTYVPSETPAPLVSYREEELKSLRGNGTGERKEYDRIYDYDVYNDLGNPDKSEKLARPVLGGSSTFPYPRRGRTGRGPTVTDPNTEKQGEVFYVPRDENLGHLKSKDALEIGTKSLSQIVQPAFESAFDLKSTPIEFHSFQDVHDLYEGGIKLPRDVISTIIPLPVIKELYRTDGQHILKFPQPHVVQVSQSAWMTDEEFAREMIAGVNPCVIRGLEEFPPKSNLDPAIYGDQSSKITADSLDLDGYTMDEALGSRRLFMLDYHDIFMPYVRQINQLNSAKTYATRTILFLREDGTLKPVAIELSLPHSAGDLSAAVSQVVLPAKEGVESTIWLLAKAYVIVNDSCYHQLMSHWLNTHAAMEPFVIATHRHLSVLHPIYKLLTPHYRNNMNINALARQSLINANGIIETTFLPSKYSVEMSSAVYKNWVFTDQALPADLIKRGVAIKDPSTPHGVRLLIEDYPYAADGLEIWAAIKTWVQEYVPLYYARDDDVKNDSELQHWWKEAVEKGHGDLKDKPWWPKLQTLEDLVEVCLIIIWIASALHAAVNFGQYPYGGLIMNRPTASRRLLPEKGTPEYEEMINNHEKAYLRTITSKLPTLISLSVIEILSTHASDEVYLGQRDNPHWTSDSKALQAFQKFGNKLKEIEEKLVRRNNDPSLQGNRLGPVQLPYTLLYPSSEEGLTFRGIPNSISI
Nature of the test: Soybean lipoxygenase inhibition study in vitro (UV-based enzyme assay). It counts as biochemical. Conditions: for IC50: sodium linoleate 0.1 mM, read-out: LOX IC50 (±SD); for inhibition at 10 µM: 0.01 mM, read-out: LOX inhibition % (±SD). As for the experimental part: The evaluation of the novel acids against soybean lipoxygenase LOX was accomplished by the UV-based enzyme assay of Pontiki and Hadjipavlou-Litina. This assay may be used as a qualitative or semi-quantitative screen for such activity.
In vitro inhibitory LOX assay is accomplished as described previously. The novel derivatives for testing (stock solutions 10 mM in DMSO) were incubated at room temperature with sodium linoleate (0.1 mM) and 0.2 mL of LOX enzyme solution (1/9 × 10^−4w/v in saline). The conversion of sodium linoleate to 13-hydroperoxylinoleic acid was measured at 234 nm and compared with the reference inhibitor. Several concentrations were used for the IC50 determination (Table 2).

The subject of test [4] is OAW-42 (ovarian). Nature of the test: SRB cytotoxicity assay, OAW-42. Format: cell-based. Conditions: Homo sapiens, 50% growth inhibition, 48 h exposure. As for the experimental part:
as §1, §2, §3

Data on eight compounds can be found in PMC6270778, “Novel Cinnamic Acid Derivatives as Antioxidant and Anticancer Agents: Design, Synthesis and Modeling Studies” (Molecules, 2014).

The term IC50 denotes the concentration that gives 50% inhibition. Regarding `N#Cc1ccc(C=C(C(=O)O)c2ccccc2)cc1` [Compound 1i, 3-(4-Cyanophenyl)-2-phenylacrylic acid], in test [1], the “HO (%) (±SD)” value was “no”. For the same compound, the IC50 in test [2] is above 240 µM; in test [3] it was 60 ± 0.4 µM; in test [4], above 240 µM.
Usually inhibition stands for the drop in the measured response relative to a control, in per cent. Take `N#Cc1ccc(C=CC(=O)O)cc1` [Compound 1ii, 3-(4-Cyanophenyl)acrylic acid]: the “HO (%) (±SD)” value in test [1] is “no”. The IC50 in test [2] and in test [4] was above 240 µM each time. Further, the inhibition at 10 µM in test [3] is 27%.
For `O=C(O)C(=CC=Cc1ccc([N+](=O)[O-])cc1)c1ccccc1` [Compound 2i, 5-(4-Nitrophenyl)-2-phenylpenta-2,4-dienoic acid], the “HO (%) (±SD)” value in test [1] was 33 ± 0.8%. For the same compound, the IC50 in test [2] is 141 ± 1.8 µM; in test [3], 66.5 ± 1.2 µM; in test [4], 160 ± 1.1 µM.
In the case of `O=C(O)C=CC=Cc1ccc([N+](=O)[O-])cc1` [Compound 2ii, 5-(4-Nitrophenyl)penta-2,4-dienoic acid], the “HO (%) (±SD)” value in test [1] is recorded as “no”. The IC50 in test [2] and in test [4] was above 240 µM throughout. Besides, the inhibition at 10 µM in test [3] was 31%.
In the case of `O=C(O)C(=CC=Cc1ccccc1)c1ccccc1` [Compound 3i, 2,5-Diphenylpenta-2,4-dienoic acid], in test [1], the “HO (%) (±SD)” value was found to be 81 ± 1.9%. The IC50 in test [2] is above 240 µM; in test [3] it was 74 ± 1.7 µM; in test [4], above 240 µM.
For `O=C(O)C=CC=Cc1ccccc1` [Compound 3ii, 5-Phenylpenta-2,4-dienoic acid], the “HO (%) (±SD)” value in test [1] is 81 ± 1.2%. The IC50 in test [2] and in test [4] was above 240 µM in each case. The inhibition at 10 µM in test [3] was 24%.
In the case of `O=C(O)C(=CC(Br)=Cc1ccccc1)c1ccccc1` [Compound 4i, 4-Bromo-2,5-diphenylpenta-2,4-dienoic acid], the “HO (%) (±SD)” value in test [1] is “no”. The results for the IC50 in test [2], in test [3] and in test [4] were above 240 µM, 74 ± 1.8 µM and 174 ± 1.8 µM, respectively.
The corresponding values for `O=C(O)C=CC(Br)=Cc1ccccc1` [Compound 4ii, 4-Bromo-5-phenylpenta-2,4-dienoic acid] are 100 ± 1.8%, 54 ± 1.1 µM, 10 ± 0.05 µM and 63.5 ± 0.8 µM.
